Test results as given in ChEMBL document CHEMBL1201862, “PubChem BioAssay data set” (2004).
Values joined by “and” are separate entries in the source; they are usually repeats but may differ in a detail not shown here. Equal values may be shown once. Values belong to the molecule of their own block, whether it stands above or below them. Active and inactive are the calls of the source.

Assays:
[1] = target: Cytochrome P450 2C9 (Homo sapiens, UniProt P11712)
[2] = target: T1, Cytochrome P450 1A2 (Homo sapiens, UniProt P05177);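 also: PubChem cytochrome P450 panel assay, CYP1A2 panel member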
T1 sequence (P05177 whole entry): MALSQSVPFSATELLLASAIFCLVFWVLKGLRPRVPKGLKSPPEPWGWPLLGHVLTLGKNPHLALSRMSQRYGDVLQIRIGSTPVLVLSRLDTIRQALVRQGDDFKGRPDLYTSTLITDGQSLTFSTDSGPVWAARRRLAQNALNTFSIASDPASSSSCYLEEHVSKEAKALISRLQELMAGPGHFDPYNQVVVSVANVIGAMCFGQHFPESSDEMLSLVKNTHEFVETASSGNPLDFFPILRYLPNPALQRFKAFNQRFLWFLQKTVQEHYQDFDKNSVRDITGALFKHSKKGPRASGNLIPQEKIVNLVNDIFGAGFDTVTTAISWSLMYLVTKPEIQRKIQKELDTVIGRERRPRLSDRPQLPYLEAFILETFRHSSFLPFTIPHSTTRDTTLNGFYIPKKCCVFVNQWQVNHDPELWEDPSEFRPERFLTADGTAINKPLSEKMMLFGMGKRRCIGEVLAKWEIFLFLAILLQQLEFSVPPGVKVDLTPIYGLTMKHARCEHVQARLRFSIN

[3] = target: Cytochrome P450 2D6 (Homo sapiens, UniProt P10635);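 also: CYP2D6 member of a cytochrome P450 panel assay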
[4] = system: Streptococcus sp. 'group A'; assay: Streptococcus pyogenes SK(-)GAS viability under kanamycin – luminescence, BacTiterGlo, confirmation, counter-screen for streptokinase expression inhibitor project, dose response (AID 1900); assay type: functional, organism-based
[5] = system: Streptococcus; assay: GAS UMAA2166 growth inhibition – luminescence, BacTiterGlo, counter-screen for streptokinase expression inhibitor project, dose response (AID 1915); assay type: functional, organism-based;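 also: potency for reduction of bacterial viability or growth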
[6] = target: Cytochrome P450 3A4 (Homo sapiens, UniProt P08684);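 also: CYP3A4 tested as one member of a cytochrome P450 panel screen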
[7] = Trypanosoma cruzi growth suppression in host cells – NIH3T3 host cells, beta-gal luminescence, confirmation (AID 2044); assay type: functional, cell-based;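 also: intracellular parasites grown in NIH/3T3 mouse fibroblasts as host cells; luminescent beta-galactosidase reporter signal from transgenic T. cruzi replicating inside host cells; inhibitors lower the luminescence signal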
[8] = NIH3T3 cell viability loss – ATP luminescence, mouse fibroblasts, counter-screen, dose response (AID 2010); assay type: functional, cell-based;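 also: cells exposed to compound for about 90 hours before reading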

Cytochrome P450 3A4, sequence (P08684 whole entry): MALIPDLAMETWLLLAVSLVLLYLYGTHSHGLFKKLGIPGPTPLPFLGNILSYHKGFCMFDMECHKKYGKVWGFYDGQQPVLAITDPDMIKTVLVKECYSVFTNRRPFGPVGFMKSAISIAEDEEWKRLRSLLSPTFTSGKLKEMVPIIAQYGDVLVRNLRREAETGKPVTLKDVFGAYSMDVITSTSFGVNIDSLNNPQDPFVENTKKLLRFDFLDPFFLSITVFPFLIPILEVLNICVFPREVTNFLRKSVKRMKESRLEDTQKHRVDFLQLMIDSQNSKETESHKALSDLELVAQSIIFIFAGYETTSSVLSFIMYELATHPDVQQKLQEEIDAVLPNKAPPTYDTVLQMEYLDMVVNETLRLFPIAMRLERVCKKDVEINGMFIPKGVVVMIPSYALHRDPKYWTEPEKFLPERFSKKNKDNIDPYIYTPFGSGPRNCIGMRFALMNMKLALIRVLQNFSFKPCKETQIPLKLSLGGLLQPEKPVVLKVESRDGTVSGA
Cytochrome P450 2D6, sequence (P10635 whole entry): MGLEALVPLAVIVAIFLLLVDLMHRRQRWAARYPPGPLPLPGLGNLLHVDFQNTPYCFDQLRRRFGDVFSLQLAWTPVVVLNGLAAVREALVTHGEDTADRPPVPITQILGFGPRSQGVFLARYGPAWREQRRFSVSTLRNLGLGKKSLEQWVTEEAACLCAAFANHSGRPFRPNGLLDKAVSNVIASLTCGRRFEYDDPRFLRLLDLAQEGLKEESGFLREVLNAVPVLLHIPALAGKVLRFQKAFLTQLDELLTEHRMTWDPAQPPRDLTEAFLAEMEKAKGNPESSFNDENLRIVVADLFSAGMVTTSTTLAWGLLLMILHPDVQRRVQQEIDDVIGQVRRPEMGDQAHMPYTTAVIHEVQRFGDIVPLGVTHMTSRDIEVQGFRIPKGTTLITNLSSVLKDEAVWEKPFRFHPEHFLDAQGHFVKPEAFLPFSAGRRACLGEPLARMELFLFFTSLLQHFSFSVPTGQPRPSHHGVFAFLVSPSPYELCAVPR
Cytochrome P450 2C9, sequence (P11712 whole entry): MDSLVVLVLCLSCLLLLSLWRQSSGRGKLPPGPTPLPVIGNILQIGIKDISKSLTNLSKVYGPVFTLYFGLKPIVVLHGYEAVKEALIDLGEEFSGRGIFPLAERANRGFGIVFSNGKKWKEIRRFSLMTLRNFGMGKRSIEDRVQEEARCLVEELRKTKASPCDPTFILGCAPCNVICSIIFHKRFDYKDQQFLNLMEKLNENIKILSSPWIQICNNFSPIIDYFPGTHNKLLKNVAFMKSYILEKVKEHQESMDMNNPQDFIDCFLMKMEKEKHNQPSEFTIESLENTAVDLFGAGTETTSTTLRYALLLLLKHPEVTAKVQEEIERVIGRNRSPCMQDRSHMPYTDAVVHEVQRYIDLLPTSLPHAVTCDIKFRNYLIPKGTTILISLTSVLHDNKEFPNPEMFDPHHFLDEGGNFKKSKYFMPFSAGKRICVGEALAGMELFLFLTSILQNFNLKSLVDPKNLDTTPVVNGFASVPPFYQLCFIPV

SMILES: O=C(Oc1ccccc1)N1CCC2(CCCN(C(c3ccccc3)c3ccccc3)C2)CC1
AC50 [1]: 2 µM (inconclusive)

SMILES: Nc1nc(Nc2ccccc2)nc2c1ncn2[C@@H]1O[C@@H](CO)[C@H](O)[C@@H]1O
AC50 [2]: 31.6 µM (inconclusive)

SMILES: C=CCc1cccc(C2Nc3ccccc3C(=O)N2O)c1O (stereo not given)
AC50 [3]: 0.355 µM (inconclusive)

SMILES: Nc1nonc1-c1nc2ccccc2n1CC(=O)N/N=C\c1ccc(-c2ccc(Cl)cc2)o1
EC50 [4]: 1.02 µM (active)
EC50 [5]: 2.38 µM (active)

SMILES: c1ccc([C@@H]2CN3CCSC3=N2)cc1 [DEXAMISOLE]
AC50 [3]: 31.6 µM (inconclusive) and 10 µM (inconclusive) and 20 µM (inconclusive)

SMILES: COC(=O)[C@@]1(Cc2ccc(OC)cc2)[C@H]2c3cc(C(=O)N(C)C)n(CCc4ccc(OC)c(Br)c4)c3C[C@H]2CN1C(=O)c1ccccc1
AC50 [3]: 0.0501 µM (inconclusive)

SMILES: Cc1cc(COC(=O)C2N3C(=O)[C@@H](NC(=O)COc4ccccc4)[C@H]3SC2(C)C)on1 (stereo not given in full)
EC50 [4]: 0.175 µM (active)
EC50 [5]: 0.384 µM (active)

SMILES: O=C(O)c1ccccc1C1c2ccccc2Oc2ccccc21
AC50 [1]: 3.98 µM (inconclusive)

SMILES: CC(C(=O)Nc1ccccc1Sc1ccccc1)N(c1ccccc1)S(C)(=O)=O (stereo not given)
AC50 [3]: 25.1 µM (inconclusive)

SMILES: Cc1ccc(-n2nnnc2SCC(=O)c2cc(C)n(CC3CCCO3)c2C)cc1 (stereo not given)
EC50 [7]: 0.479 µM (active)
EC50 [8]: > 30 µM (not active)

SMILES: CCn1cc(CN2CCCC(C(=O)c3ccc(-c4ccccc4)c(F)c3)C2)cn1 (stereo not given)
EC50 [7]: 0.569 µM (active)
EC50 [8]: > 60 µM (not active)

SMILES: CCOC(=O)CN(C(=O)CCC(=O)Nc1cc(C)on1)C(C(=O)NC1CCCC1)c1cccnc1 (stereo not given)
AC50 [1]: 17.8 µM (inconclusive)

SMILES: CC(C)COP(=O)(OCC(C)C)C(O)c1ccccc1F (stereo not given)
AC50 [6]: 3.98 µM (inconclusive)

SMILES: Cc1nc(O)c2nsc(C(=O)Nc3ccc(N4CCCC(O)C4)cc3)c2n1 (stereo not given)
EC50 [4]: 3.32 µM (active)
EC50 [5]: > 150 µM (not active)

SMILES: CCCn1c(=O)c2[nH]c(C3CCCC3)nc2n(CCCOC(=O)c2ccc(S(=O)(=O)F)cc2)c1=O
AC50 [6]: 3.16 µM (inconclusive)
AC50 [1]: 3.16 µM (inconclusive)

SMILES: O=C(Nc1ncc(Cc2ccccc2Cl)s1)c1ccc(-c2cccc([N+](=O)[O-])c2)o1
EC50 [7]: 1.57 µM (active)
EC50 [8]: > 60 µM (inconclusive)

SMILES: CCCCCCCCCn1cc(C(C)=O)c(=O)[nH]c1=O
AC50 [2]: 14.1 µM (inconclusive)

SMILES: O=C(NC(N1CCOCC1)C(Cl)(Cl)Cl)c1cc([N+](=O)[O-])cc([N+](=O)[O-])c1 (stereo not given)
EC50 [7]: 0.9 µM (active)
EC50 [8]: > 60 µM (not active)

SMILES: c1ccc2c([C@@H]3CCN(CCN4CCOCC4)C3)c[nH]c2c1
AC50 [3]: 3.98 µM (inconclusive)

More lines, now with the values ahead:

AC50 [6]: 15.8 µM (inconclusive)
SMILES: CCCN1CN=C(S)N(c2cccc(C)c2C)C1

AC50 [6]: 35.5 µM (inconclusive)
SMILES: COc1cccc(CNc2ccc(F)c(Cl)c2)c1O

AC50 [3]: 39.8 µM (inconclusive)
SMILES: Cc1cnc(CNc2nc(-c3ccc(N(C)C)cc3)nc3ccccc23)cn1

AC50 [1]: 31.6 µM (inconclusive)
SMILES: CCCCC[C@H](O)c1cccc(OCc2ccc3ccccc3n2)c1

AC50 [6]: 15.8 µM (inconclusive)
SMILES: CCOc1ccc(-n2c(SCC(=O)Nc3ccc(OC)cc3OC)nc3c(c2=O)SCC3)cc1

AC50 [2]: 28.2 µM (inconclusive)
SMILES: CCc1ccccc1NC(=O)C(C)n1nc([N+](=O)[O-])c(Br)c1C (stereo not given)

AC50 [6]: 22.4 µM (inconclusive)
AC50 [1]: 12.6 µM (inconclusive)
SMILES: CCCc1c(O)c2ccccc2n(-c2ccccc2)c1=O

AC50 [2]: 39.8 µM (inconclusive)
SMILES: CO/C(O)=C1\C(C)=NC(C)=C([N+](=O)[O-])[C@@H]1c1ccccc1C(F)(F)F

AC50 [2]: 2.51 µM (inconclusive)
SMILES: COc1ccc(-c2nc3cnc(N4CCOCC4)nc3n(Cc3cccs3)c2=O)cc1

AC50 [3]: 15.8 µM (inconclusive)
AC50 [6]: 25.1 µM (inconclusive)
AC50 [1]: 15.8 µM (inconclusive)
SMILES: CCC(=O)NCc1c(Cl)cccc1-n1cccc1
